Where “and” joins values, the source holds several entries; their conditions need not be identical. Identical values can stand only once. Inconclusive results are not listed.
System: BDF1 mice, colon carcinoma 38 sc, T/C %
Experiment: NCI In Vivo Anticancer Drug Screen. Data for tumor model Colon Carcinoma 38 (subcutaneous) in B6D2F1 (BDF1) mice
Conditions: endpoint: median tumor weight (est.), higher = larger tumour
Procedure, shortened: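 Transplantable tumor in mice; compound-treated vs vehicle-dosed controls. Measured survival or tumor size; value = T ÷ C.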

[1] = dose: 200.0 mg/kg/injection, schedule: Q07DX002 (ip), vehicle: saline
[2] = dose: 12.5 mg/kg/injection, schedule: Q07DX002 (ip), vehicle: saline with Tween-80
[3] = dose: 50.0 mg/kg/injection, schedule: Q07DX002 (ip), vehicle: saline with Tween-80
[4] = dose: 200.0 mg/kg/injection, schedule: Q07DX002 (ip), vehicle: saline with Tween-80
[5] = dose: 400.0 mg/kg/injection, schedule: Q07DX002 (ip), vehicle: saline with Tween-80
[6] = dose: 1.56 mg/kg/injection, schedule: Q07DX002 (ip), vehicle: saline
[7] = dose: 100.0 mg/kg/injection, schedule: Q07DX002 (ip), vehicle: saline with Tween-80

With `CC1=CC2C(O)(CC(CO)=CC3C4C(C)(C)C4(OC(=O)c4ccccc4)C(OC(=O)c4ccccc4)C(C)C32O)C1=O` (stereo unspecified) the T/C (dose: 0.5 mg/kg/injection, schedule: Q07DX002 (ip), vehicle: saline with Tween-80) was 156 % of control and the T/C (dose: 2.0 mg/kg/injection, schedule: Q07DX002 (ip), vehicle: saline with Tween-80) was 167 % of control.

In the case of `CN(C)CC(Cl)CCl` (stereo unspecified), the T/C (dose: 12.5 mg/kg/injection, schedule: Q07DX002 (ip), vehicle: saline) is reported as 118 % of control, the T/C (dose: 25.0 mg/kg/injection, schedule: Q07DX002 (ip), vehicle: saline) is reported as 105 % of control and the T/C (dose: 100.0 mg/kg/injection, schedule: Q07DX002 (ip), vehicle: saline) is reported as 115 % of control. The T/C [1] was 118 % of control and the T/C (dose: 400.0 mg/kg/injection, schedule: Q07DX002 (ip), vehicle: saline) was 88 % of control.

`[O-][n+]1c(CN2CCCCC2)nc2cccc3c2c1-c1ccccc1-3` was tested, and the T/C [2] was 66 % of control, the T/C [3] was 47 % of control and the T/C [4] was 57 % of control. For the same compound, the T/C [5] was 72 % of control and 81 % of control.

With `NC1CCCCC1N.O=C1C=CC(=C(c2ccc(O)cc2)c2ccccc2S(=O)(=O)[O-])C=C1.O=[N+]([O-])[O-].[Pt+4]` the T/C [6] was 14 % of control.

`C1CN2CCC1CC2` was tested, and the T/C (dose: 3.12 mg/kg/injection, schedule: Q07DX003 (ip), vehicle: saline) was 101 % of control and the T/C (dose: 6.25 mg/kg/injection, schedule: Q07DX003 (ip), vehicle: saline) was 78 % of control.

In the case of `Nc1nc2c(ncn2C2OC(CO)C(O)C2N)c(=O)[nH]1` (stereo unspecified), the T/C [3] is reported as 73 % of control and the T/C [7] is reported as 74 % of control.

In the case of `C=CCNc1nc2c(s1)CCc1cc(OC)c(OC)cc1-2`, the T/C [2] is reported as 94 % of control, the T/C [4] is reported as 109 % of control and 111 % of control and the T/C [5] is reported as 73 % of control.

With `CC(=O)Oc1ccccc1O` the T/C (dose: 50.0 mg/kg/injection, schedule: Q07DX002 (ip), vehicle: saline + Tween-80 + alcohol) was 158 % of control.

In the case of `CC(=O)[O][Pb]([O]C(C)=O)([c]1ccccc1)[c]1ccccc1`, the T/C (dose: 12.5 mg/kg/injection, schedule: Q07DX002 (ip), vehicle: Klucel (hydroxypropylcellulose) (HPC)) is reported as 216 % of control and the T/C (dose: 200.0 mg/kg/injection, schedule: Q07DX002 (ip), vehicle: Klucel (hydroxypropylcellulose) (HPC)) is reported as 72 % of control.

For `Cn1cnc([N+](=O)[O-])c1S(=O)(=O)NCN1CCOCC1`, the T/C (dose: 100.0 mg/kg/injection, schedule: Q07DX002 (ip), vehicle: Klucel (hydroxypropylcellulose) (HPC)) was 102 % of control and 104 % of control.

For `CCCC[C@H]1C(=O)O[C@H](C)[C@H](NC(=O)c2cccc(NC=O)c2O)C(=O)O[C@@H](C)[C@@H]1OC(=O)CC(C)C`, the T/C (dose: 0.5 mg/kg/injection, schedule: Q07DX002 (ip), vehicle: Klucel (hydroxypropylcellulose) (HPC)) was 177 % of control and the T/C (dose: 1.0 mg/kg/injection, schedule: Q07DX002 (ip), vehicle: Klucel (hydroxypropylcellulose) (HPC)) was 224 % of control.

In the case of `COc1cc2c(c(OC)c1OC)-c1ccc(OC)c(=O)cc1[C@@H](NC(C)=O)CC2`, the T/C (dose: 0.12 mg/kg/injection, schedule: Q07DX002 (ip), vehicle: saline) is reported as 105 % of control, the T/C (dose: 0.25 mg/kg/injection, schedule: Q07DX002 (ip), vehicle: saline) is reported as 121 % of control and the T/C (dose: 0.37 mg/kg/injection, schedule: Q07DX002 (ip), vehicle: saline) is reported as 119 % of control. The T/C (dose: 0.75 mg/kg/injection, schedule: Q07DX002 (ip), vehicle: saline) was 69 % of control, the T/C (dose: 1.0 mg/kg/injection, schedule: Q07DX002 (ip), vehicle: saline) was 159 % of control and the T/C (dose: 1.5 mg/kg/injection, schedule: Q07DX002 (ip), vehicle: saline) was 87 % of control. The T/C [6] was 95 % of control, the T/C (dose: 3.0 mg/kg/injection, schedule: Q07DX002 (ip), vehicle: saline) was 87 % of control and the T/C (dose: 4.0 mg/kg/injection, schedule: Q07DX002 (ip), vehicle: saline) was 111 % of control. The T/C (dose: 6.0 mg/kg/injection, schedule: Q07DX002 (ip), vehicle: saline) was 5 % of control.

With `Cc1ccccc1N(CC1CO1)CC1CO1` (stereo unspecified) the T/C (dose: 25.0 mg/kg/injection, schedule: Q07DX002 (ip), vehicle: saline with Tween-80) was 81 % of control, the T/C [3] was 104 % of control and the T/C [7] was 57 % of control. The T/C [4] was 123 % of control, the T/C [1] was 154 % of control and the T/C (dose: 800.0 mg/kg/injection, schedule: Q07DX002 (ip), vehicle: saline) was 89 % of control.

From PubChem BioAssay AID212 (DTP/NCI, 2004)
